The record followed here is patent US6602708B1, “Neural cultures” (CellFactors plc, priority 1994, dated 2003).

SMILES strings stand for the structures.

Experiment [1] deals with raphe clone 1 cells. The experiment can be described thus: raphe clone 1 cells at non-permissive temperature (39° C.), survival and differentiation. In kind it is cell-based, rat. As to conditions: plus fibroblast growth factor, up to 72 h.
Protocol: The above referred to homogeneous population of raphe clone 1 cells can be caused to enter apoptosis using any of the following four methods.
1. Temperature was raised to non-permissive value (39° C.) for up to 72 h, in the presence or absence of fibroblast growth factor or epidermal growth factor. Neural cells developed the ability to take up 5-hydroxytryptophan (5HTP, the precursor of 5HT), 5HT itself, and to decarboxylate 5-hydroxytryptophan to 5HT. […] The 5HT derived from 5HTP was released, although the mechanism of such release is not known.
2. Temperature was raised to non-permissive value (39° C.) for up to 72 h, in the presence of cyclic AMP plus fibroblast growth factor.
3. Temperature was raised to non-permissive value (39° C.) for up to 96 h, in the presence of retinoic acid (10 μM) plus fibroblast growth factor.
Experiment [2] has as its system low-affinity carrier. The experiment can be described thus: serotonin uptake by clone 921203-6 cells after shift to 39° C. In kind it is cell-based, rat. The note with it: clone 921203-6, 39° C. The procedure: Mesencephalic and medullary raphe neural cells from the E12-E13 rat embryo (E1=day of conception) were immortalised using a temperature-sensitive oncogene as described earlier (Stringer et al., 1994). Under permissive conditions, ie in the presence of 5 ng/ml of fibroblast growth factor (FGF)(Sigma, product no. F3391) and at 33° C., the immortalised raphe precursor cells replicate. […] No calcium channels were demonstrable using patch clamp analysis.

Consider `Nc1ncnc2c1ncn2[C@@H]1O[C@@H]2COP(=O)(O)O[C@H]2[C@H]1O` [cyclic AMP], for which the “extent of fibre development” value in experiment [1] is “increase”. With `NCCc1c[nH]c2ccc(O)cc12` [serotonin, 5-hydroxytryptamine], the Km in experiment [2] was 56 µM.

What is called Km is the substrate concentration at which the rate is half of its maximum.
